Measurements reported in ChEMBL document CHEMBL1201862, “PubChem BioAssay data set” (2004).
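Where inhibition never reached the appropriate level, the endpoint shown equals the highest concentration tested. Otherwise, values were interpolated linearly from a five-concentration, 48-hour dose response in 96-well plates. The concentration for 50% growth inhibition is given as GI50.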 The source made the active and inactive calls. Cut-off read from the data, not from the text of the source: active = GI50 up to about 1.1 µM and inactive = higher.

Assays:
Assay in all cases: NCI-60 cell line screen, 48 h
[1] = test system: SF-268
[2] = test system: CAKI-1
[3] = test system: SF-539
[4] = test system: SNB-19
[5] = test system: CCRF-CEM
[6] = test system: M14
[7] = test system: OVCAR-3
[8] = test system: UO-31
[9] = test system: U-251
[10] = test system: SK-MEL-2
[11] = test system: SK-MEL-5
[12] = test system: OVCAR-4
[13] = test system: TK-10
[14] = test system: RPMI-8226
[15] = test system: COLO 205
[16] = test system: A498
[17] = test system: MOLT-4
[18] = test system: SNB-75

Measured: GI50

CC1=NN(C(=O)c2ccc(Cl)cc2)C(=O)/C1=C/c1cccc([N+](=O)[O-])c1
inactive: [1] > 100 µM | [2] > 100 µM | [3] > 100 µM | [4] > 100 µM | [5] > 100 µM | [6] > 100 µM | [7] > 100 µM | [8] > 100 µM | [9] > 100 µM | [10] > 100 µM | [11] > 100 µM | [12] > 100 µM | [13] > 100 µM | [14] > 100 µM | [15] > 100 µM | [16] > 100 µM

CCCCN1C=CN2c3nc4cc(C)c(C)cc4n3C(C(=O)OC)=C(C(=O)OC)C12 (stereo not given)
inactive: [1] > 100 µM | [2] > 100 µM | [3] > 100 µM | [4] > 100 µM | [17] > 100 µM | [5] > 100 µM | [6] > 100 µM | [7] > 100 µM | [8] > 100 µM | [18] > 100 µM | [9] > 100 µM | [10] > 100 µM | [11] > 100 µM | [12] > 100 µM | [13] > 100 µM | [14] > 100 µM

CC(=O)Nc1ccc(-c2nnc(SCC(=O)Nc3ccccc3)o2)cc1
inactive: [1] > 100 µM | [2] > 100 µM | [3] 71.1 µM | [17] > 100 µM | [5] 59.4 µM | [6] 86.3 µM | [7] > 100 µM | [8] 79.6 µM | [18] > 100 µM | [9] 43.7 µM | [10] > 100 µM | [11] 69 µM | [12] > 100 µM | [13] > 100 µM | [14] 81.7 µM | [15] > 100 µM

CC1(C)OC(C(N)=O)=C(C(N)=O)O1
inactive: [1] > 100 µM | [2] > 100 µM | [3] > 100 µM | [4] > 100 µM | [17] > 100 µM | [5] > 100 µM | [6] > 100 µM | [7] > 100 µM | [8] > 100 µM | [18] > 100 µM | [9] > 100 µM | [10] > 100 µM | [12] > 100 µM | [13] > 100 µM | [15] > 100 µM | [16] > 100 µM

COc1ccc(-c2cc(N3CCN(c4ccc(Cl)cc4)CC3)c(C#N)c(=O)o2)cc1
inactive: [1] 5.38 µM | [2] 8.71 µM | [3] 3.55 µM | [4] 2.93 µM | [6] 35.1 µM | [8] 4.79 µM | [18] 3.25 µM | [9] 21.2 µM | [10] 15.6 µM | [11] 11.9 µM | [12] 2.45 µM | [13] 16.5 µM | [14] 12.8 µM | [15] > 100 µM | [16] 16.4 µM

COc1ccc(C(=O)C(C(=O)C(=O)NCCCNC(=O)C(=O)C(C(=O)c2ccc(OC)cc2)c2ccc(OC)cc2)c2ccc(OC)cc2)cc1 (stereo not given)
inactive: [1] > 100 µM | [3] > 100 µM | [4] > 100 µM | [17] > 100 µM | [5] > 100 µM | [6] > 100 µM | [7] > 100 µM | [8] > 100 µM | [18] > 100 µM | [9] > 100 µM | [10] > 100 µM | [12] > 100 µM | [13] > 100 µM | [14] > 100 µM | [15] > 100 µM

COC1(OC)CCC2(C)OC(c3ccccc3)C1O2 (stereo not given)
inactive: [1] > 100 µM | [2] > 100 µM | [3] > 100 µM | [4] > 100 µM | [17] > 100 µM | [5] > 100 µM | [6] > 100 µM | [7] > 100 µM | [8] > 100 µM | [18] > 100 µM | [9] > 100 µM | [10] > 100 µM | [12] > 100 µM | [13] > 100 µM | [14] > 100 µM | [15] > 100 µM

[O-]c1on[n+]2c1c(Nc1ccc(Cl)cc1)nc1ccccc12
inactive: [1] > 100 µM | [3] > 100 µM | [4] > 100 µM | [17] > 100 µM | [5] > 100 µM | [6] > 100 µM | [7] > 100 µM | [8] > 100 µM | [18] 85.1 µM | [9] > 100 µM | [11] > 100 µM | [12] > 100 µM | [13] > 100 µM | [14] > 100 µM | [15] > 100 µM | [16] > 100 µM

Cc1ccc(/C=C/C(=O)c2ccc([N+](=O)[O-])cc2)cc1
active: [16] 0.815 µM
inactive: [1] > 100 µM | [2] > 100 µM | [3] > 100 µM | [4] > 100 µM | [17] > 100 µM | [5] > 100 µM | [6] > 100 µM | [7] > 100 µM | [8] 59.4 µM | [18] > 100 µM | [9] 21.2 µM | [10] > 100 µM | [11] > 100 µM | [12] > 100 µM | [13] > 100 µM | [15] > 100 µM

COC(=O)Cc1cc(=O)n2c([nH]c3ccccc32)c1C#N
inactive: [1] > 100 µM | [2] > 100 µM | [3] > 100 µM | [4] > 100 µM | [17] > 100 µM | [6] > 100 µM | [7] > 100 µM | [8] 61 µM | [9] 49.3 µM | [10] > 100 µM | [11] 34.8 µM | [12] > 100 µM | [13] > 100 µM | [14] 56.4 µM | [15] > 100 µM | [16] > 100 µM
active: [18] 0.42 µM

Cc1cc(Cl)ccc1NC(=O)CCCC(=O)C(C(=O)c1ccccc1)c1ccccc1 (stereo not given)
inactive: [1] > 100 µM | [2] > 100 µM | [17] > 100 µM | [5] > 100 µM | [6] > 100 µM | [7] > 100 µM | [9] > 100 µM | [10] > 100 µM | [12] > 100 µM | [14] > 100 µM | [15] > 100 µM | [16] > 100 µM

C/C=C1/C(=Cc2[nH]c(C=c3[nH]/c(=C/C4=NC(=O)C(CC)=C4C)c(C)c3CCC(=O)O)c(CCC(=O)O)c2C)NC(=O)C1C (stereo not given)
inactive: [1] 7.89 µM | [2] 16.4 µM | [3] 6.4 µM | [4] > 50 µM | [17] 1.95 µM | [5] 2.1 µM | [6] 1.87 µM | [7] 27.5 µM | [8] 8.24 µM | [18] 4.79 µM | [9] 7.48 µM | [10] 9.08 µM | [12] 11.1 µM | [13] > 50 µM | [15] 18.1 µM

CC1SC(c2ccccc2)N(Nc2c3ccccc3nc3ccccc23)C1=O (stereo not given)
inactive: [1] > 100 µM | [2] 46.9 µM | [3] > 100 µM | [4] > 100 µM | [17] 28.9 µM | [5] 69.8 µM | [6] > 100 µM | [7] > 100 µM | [8] 20.4 µM | [18] 34.6 µM | [9] > 100 µM | [10] > 100 µM | [11] 38.4 µM | [12] > 100 µM | [14] 58.7 µM | [15] > 100 µM

O=C1c2cccc3c2C(=O)c2c(cccc21)OCCOCCOCCOCCO3
inactive: [1] > 100 µM | [2] 96.4 µM | [3] > 100 µM | [4] > 100 µM | [17] 31.5 µM | [5] 47.2 µM | [6] > 100 µM | [7] > 100 µM | [8] 30.9 µM | [18] 40.9 µM | [9] > 100 µM | [10] > 100 µM | [11] 75.7 µM | [12] 74.6 µM | [13] > 100 µM | [14] 55.2 µM

COC(=O)[C@]1(C)CCCC2(C)C1CC[C@H]1C=C(C)[C@H]3CCC12C3 (stereo not given in full)
inactive: [1] > 100 µM | [2] > 100 µM | [3] > 100 µM | [4] > 100 µM | [17] > 100 µM | [5] > 100 µM | [6] > 100 µM | [7] > 100 µM | [8] > 100 µM | [18] > 100 µM | [9] > 100 µM | [11] 98.2 µM | [12] > 100 µM | [13] > 100 µM | [14] > 100 µM | [15] > 100 µM

CC(=O)N[C@@H]1C(O)CN2C(=O)C(=O)O[C@H](C(O)CO)[C@@H]12 (stereo not given in full)
inactive: [1] > 100 µM | [3] > 100 µM | [4] > 100 µM | [17] > 100 µM | [5] > 100 µM | [7] > 100 µM | [8] > 100 µM | [18] > 100 µM | [9] > 100 µM | [10] > 100 µM | [13] > 100 µM | [14] > 100 µM | [15] > 100 µM | [16] > 100 µM

O=c1ccc2ccccc2o1 [COUMARIN]
inactive: [1] > 100 µM | [3] > 100 µM | [4] > 100 µM | [17] > 100 µM | [5] > 100 µM | [6] > 100 µM | [7] > 100 µM | [8] > 100 µM | [18] > 100 µM | [9] > 100 µM | [10] > 100 µM | [12] > 100 µM | [13] > 100 µM | [14] > 100 µM | [15] > 100 µM | [16] > 100 µM
